Read-outs that look alike come from different tables or passages of the source.
Columns and labels:
primary myeloma explants = test: Primary myeloma explant viability; format: cell-based; conditions: for sensitivity of primary myeloma cells: 3 days in culture
Method: (§1) Figure 6 Susceptibilities of multiple myeloma cell lines and primary explants to SBI compounds A. Cell lines. The indicated human myeloma cell lines were treated with the indicated compounds for 3 days at which point the total viable cell count was determined using the Cell Titer Glo assay method. Shown are the IC50 values that were calculated from standard 10-point dose-response curves (Supplementary Figure 3). B. Primary myeloma explants. Myeloma cells were purified from bone marrow aspirates and maintained in culture for 3 days in the presence of varying concentrations of the indicated compounds [86] IC50 values were calculated from dose-response curves (Supplementary Figure 4).
(§2) Cell lines were propagated in RPMI medium or Dulbecco's modified Eagle's minimal essential medium (D-MEM), containing 10% fetal bovine serum, 100 units/mL penicillin G and 100 μg/mL streptomycin. Proliferation and viability assays, cells were performed in 96 well plates in the presence of serial dilutions of compounds. Relative cell numbers and viability were determined 2-4 days later using MTT or CellTiter Glo (Promega, Inc. Madison, WI) assays as previously described.
Primary myeloma samples were obtained from the Norwegian Myeloma Biobank after obtaining approval from the Regional Ethics Committee.

[1] = test system: N-Myc protein in SK-N-BE(2) cells; test: N-Myc protein immunoblot in neuroblastoma cells; format: cell-based, human; conditions: within 24 hr
Method: As positive and negative controls, respectively, parallel cultures were exposed to 60 μM 10058-F4 (+) or to DMSO vehicle only. B. SK-N-BE(2) cells treated as described in A were fixed and stained with Oil Red O to delineate lipid droplets. C. SK-N-BE(2) cells were exposed to the indicated amounts of Myc inhibitors for 5 days either in the concurrent absence or presence of nerve growth factor (NGF: 50 ng/ml). Typical fields of unfixed cells were then photographed. Note the presence of longer and more numerous neurite outgrowths in cells exposed to Myc inhibitors (arrows).
Immunoblotting was performed as previously described. Antibodies included a mouse mAb against human Myc (1:500 dilution: Clone 9E10, Santa Cruz Biotechnology, Inc. Santa Cruz, CA), a mouse mAb against β−actin (1:10,000 dilution: cat. no.3700S Cell Signaling Technology, Inc. Beverly, MA), a mouse mAb against AMPK (1:1000 dilution: catalog no. 2532, Cell Signaling Technology) and a rabbit polyclonal antibody against AMPK phospho-Thr172 (1:1000 dilution, catalog no.2535, Cell Signaling Technologies).

human myeloma cell lines = test: Myeloma cell line viability, Cell Titer Glo; format: cell-based; conditions: for differential susceptibilities among myeloma cell lines: discounting U266
Method: as §1, §2

[2] = test system: HL60 promyelocytic leukemia cell line; test: Proliferation inhibition of HL60 cells; format: cell-based; conditions: Homo sapiens, HL-60
Method: as §2

[3] = test system: NCI-60 cell line collection; test: NCI-60 cell line screen; format: cell-based
[4] = test system: Daudi Burkitt lymphoma cell line; test: Proliferation inhibition of Daudi cells; format: cell-based; conditions: Homo sapiens
Method: as §2

Myc-Max(S) heterodimers = Myc-Max(S) heterodimers (Homo sapiens, UniProt P01106+P61244); test: EMSA, DNA binding by Myc-Max(S) heterodimers; format: biochemical; conditions: for fold more potent than celastrol: EMSA Myc-Max(S)
Excerpt: B. Formation of a typical Michael adduct with cysteine as an example (depicted in blue) is shown. […] C. […] Recombinant Myc bHLH-ZIP domain (residues 353-437), and full-length Max(S) and Max(L) were used for EMSAs along with a HEX-tagged, double-stranded oligonucleotide containing a Myc binding E-box element (CACGTG). Max(S) is the 151 residue isoform that homodimerizes efficiently but only binds DNA as a heterodimer in association with Myc. The 160 residue isoform, termed Max(L), that does bind DNA as a homodimer and that closely mimics the Myc-Max(S) association was used as a control. D. Graphical representation of EMSA results from triplicate assays performed as described in C.
(§3) The 83 residue His6-tagged Myc bHLH-ZIP domain (amino acids […]), and full-length His6-tagged Max(S) and His6-tagged Max(L) were expressed and purified as previously described. 20 nmol each of Myc and Max(S) or 40 ng of Max(L) were used for EMSA assays that included 30 nmol of a (HEX)-tagged double-stranded E-box-containing oligonucleotide (IDT, Coralville, IA, USA). Importantly, the Myc protein excluded the two C-terminal amino acids (Cys438 and Ala439) from the final sequence, thus eliminating a potential reaction site for quinone methide-containing triterpenoids.

Max(L) homodimers = biological target: T1, Max(L) homodimers (Homo sapiens, UniProt P61244); test: EMSA, DNA binding by Max(L) homodimers; format: biochemical; conditions: recombinant Max(L)
T1 construct: full-length His6-tagged Max(S) and His6-tagged Max(L) were expressed and purified as previously described; His6; made in house
Excerpt: B. Formation of a typical Michael adduct with cysteine as an example (depicted in blue) is shown. Note that nucleophilic attack by free sulfhydryl-containing molecules occurs at position 6 of the B ring. C. […] Recombinant Myc bHLH-ZIP domain (residues 353-437), and full-length Max(S) and Max(L) were used for EMSAs along with a HEX-tagged, double-stranded oligonucleotide containing a Myc binding E-box element (CACGTG). Max(S) is the 151 residue isoform that homodimerizes efficiently but only binds DNA as a heterodimer in association with Myc. The 160 residue isoform, termed Max(L), that does bind DNA as a homodimer and that closely mimics the Myc-Max(S) association was used as a control. D. Graphical representation of EMSA results from triplicate assays performed as described in C.
as §3

[5] = 3 days, Cell Titer Glo, read-out: mean IC50 over myeloma cell lines
[6] = EMSA, recombinant Myc bHLH-ZIP and Max(S), read-out: IC50, DNA binding by Myc-Max(S) heterodimers

Chain of Myc-Max(S) heterodimers (P01106 368-452 limits assumed): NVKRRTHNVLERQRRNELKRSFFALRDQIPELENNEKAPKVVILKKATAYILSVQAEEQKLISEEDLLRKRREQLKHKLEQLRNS
Chain of Myc-Max(S) heterodimers (P61244 1-151 isoform P61244-2): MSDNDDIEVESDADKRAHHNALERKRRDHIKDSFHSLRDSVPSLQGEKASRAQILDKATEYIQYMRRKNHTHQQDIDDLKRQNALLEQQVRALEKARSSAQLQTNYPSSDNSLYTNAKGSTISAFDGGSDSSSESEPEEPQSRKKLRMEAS
T1 sequence (P61244 whole entry): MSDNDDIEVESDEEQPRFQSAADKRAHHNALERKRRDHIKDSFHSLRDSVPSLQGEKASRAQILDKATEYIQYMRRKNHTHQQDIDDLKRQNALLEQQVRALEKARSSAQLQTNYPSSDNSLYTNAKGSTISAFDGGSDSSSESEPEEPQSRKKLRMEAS

SMILES: CCc1ccc(C=C2SC(=S)NC2=O)cc1 [10058-F4, [Z,E]-5-[4-ethylbenzylidine]-2-thioxothiazolidin-4-one]
- sensitivity of primary myeloma cells (primary myeloma explants): the majority were sensitive
- N-Myc protein level [1]: declined
- IC50 (human myeloma cell lines; [5]): 21800 nM
- differential susceptibilities among myeloma cell lines (human myeloma cell lines): 3-4 fold

SMILES: C=C(C)C1CCC2(C(=O)O)CCC3(C)C(CCC4C5(C)Cc6nccnc6C(C)(C)C5CCC43C)C12 (stereo not shown) [SBI-0061739]
- IC50 [2]: 0.82 ± 0.23 µM
- IC50 (human myeloma cell lines; Homo sapiens, U-266, 72 h, 3 days, U266 excluded, read-out: mean IC50 over myeloma cell lines disregarding U266): 420 nM
- IC50 (human myeloma cell lines; Homo sapiens, 8 of 9 cell lines, read-out: IC50 in 8 of 9 myeloma cell lines): < 1000 nM
- IC50 ([3]; 7 of 8 cell lines, read-out: IC50 in renal cancer lines): > 2000 nM
- IC50 ([3]; 17 cell lines (28%), read-out: IC50 in highly sensitive NCI-60 cell lines): < 2000 nM
- IC50 ([3]; all 6 lines, read-out: IC50 in ovarian cancer lines): > 2000 nM
- IC50 [4]: 3.19 ± 2.28 µM

SMILES: CC1(C)CCC2(C(=O)O)CCC3(C)C(=CCC4C5(C)CCC(=O)C(C)(C)C5CCC43C)C2C1 (stereo not shown) [SBI-0640599]
- IC50 [2]: 12 ± 1.28 µM
- fold more potent than celastrol (Myc-Max(S) heterodimers): 4-6 fold
- IC50 (Myc-Max(S) heterodimers; [6]): 10 to 15 µM
- IC50 [4]: 14.2 ± 3.7 µM

SMILES: CC1=C(O)C(=O)C=C2C1=CC=C1[C@@]2(C)CC[C@@]2(C)[C@@H]3C[C@](C)(C(=O)O)CC[C@]3(C)CC[C@]12C [Celastrol, celastrol, reference compound]
- IC50 [2]: 0.46 ± 0.06 µM
- IC50 (Myc-Max(S) heterodimers): 67 ± 2 µM
- N-Myc protein level [1]: declined
- IC50 (Max(L) homodimers): > 140 µM
- IC50 [4]: 0.09 ± 0.02 µM

SMILES: Cc1sc2c(c1C)C(c1ccc(Cl)cc1)=N[C@@H](CC(=O)OC(C)(C)C)c1nnc(C)n1-2 [JQ1]
- sensitivity of primary myeloma cells (primary myeloma explants): resistant
- effect against primary myelomas (primary myeloma explants; even at concentrations exceeding 10-20 μM): virtually without effect
- IC50 (human myeloma cell lines; [5]): 250 nM
- IC50 (human myeloma cell lines; 3 days, U266 excluded, read-out: mean IC50 over myeloma cell lines disregarding U266): 250 nM
- fold lower mean IC50 than SBI-0061739 (human myeloma cell lines; U266 excluded): < 2 fold
- differential susceptibilities among myeloma cell lines (human myeloma cell lines): 20 fold
- factor by which JQ1 is more effective than 10058-F4 (human myeloma cell lines; mean IC50s): ~90

SMILES: C=C(C)C1CCC2(C(=O)O)CCC3(C)C(CCC4C5(C)Cc6nc7ccccc7nc6C(C)(C)C5CCC43C)C12 (stereo not shown) [SBI-0069272]
- IC50 [2]: 10.8 ± 2.18 µM
- fold more potent than celastrol (Myc-Max(S) heterodimers): 4-6 fold
- IC50 (Myc-Max(S) heterodimers; [6]): 10 to 15 µM
- IC50 [4]: 14.3 ± 3.2 µM

SMILES: C=C(C)C1CCC2(C(=O)O)CCC3(C)C(CCC4C5(C)CCC(=O)C(C)(C)C5CCC43C)C12 (stereo not shown) [SBI-0640601]
- IC50 [2]: 13.2 ± 1.74 µM
- IC50 (Myc-Max(S) heterodimers; [6]): 10 to 15 µM
- IC50 [4]: 6.36 ± 1.25 µM

Reference: paper PMC4741700 (Oncotarget, 2015)
